Test results from US11697648B2, “Fused pyrimidine pyridinone compounds as JAK inhibitors” (THERAVANCE BIOPHARMA R&D IP, LLC, priority 2019, dated 2023).

How the values were obtained:
[1] = system: IL-2 stimulated STAT5 phosphorylation in Tall-1 human T cell line (JAK3); test: Cellular JAK3 potency assay: inhibition of IL-2 stimulated pSTAT5 in Tall-1 T cells; format: cell-based; settings: IL-2 stimulated pSTAT5, Tall-1 T cells
Method in brief: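 AlphaLISA SureFire Ultra measures STAT5 Tyr694/699 phosphorylation in lysed Tall-1 human T cells. Cells were exposed to compound for 1 h at 37 °C before a 30 min IL-2 challenge (300 ng/ml final). Values are pIC50 means with standard deviation from signal-versus-concentration curves.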

[2] = system: Caco-2 cell monolayers; test: Caco-2 permeation assay; format: in vitro ADME; settings: 5 μM, A-B direction, with Verapamil (25 μM)
Method in brief: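 Passive A-to-B permeability with P-gp inhibited by verapamil (25 μM); compound at 5 μM, n=2. Both compartments sampled at t0 and t120 and quantified by LC-MS/MS, giving apparent permeability in cm/sec from flux, area and concentration.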

SMILES | Tall-1 (pIC50) [1] | Caco Kp [2]
C=CC(=O)N1CCN(CCn2c(=O)ccc3cnc(Nc4ccc(N5CCN(C)CC5)cc4)nc32)CC1 [Example 1, 8-(2-(4-acryloylpiperazin-1-yl)ethyl)-2-((4-(4-methylpiperazin-1-yl)phenyl)amino)pyrido[2,3-d]pyrimidin-7(8H)-one] | B (B represents a pC50 value between 6.7 (included) and 7.5 (IC50 between 200 nM and 32 nM)) | B (B represents a value between 5×10^−6 and 10×10^−6 cm/sec)
C=CC(=O)N1CC(CCn2c(=O)ccc3cnc(Nc4ccc(N5CCN(C(C)=O)CC5)cc4)nc32)C1 [Example 2, 2-((4-(4-acetylpiperazin-1-yl)phenyl)amino)-8-(2-(1-acryloylazetidin-3-yl)ethyl)pyrido[2,3-d]pyrimidin-7(8H)-one] | B (B represents a pC50 value between 6.7 (included) and 7.5 (IC50 between 200 nM and 32 nM)) | A (A represents a value below 5×10^−6 cm/sec)
C=CC(=O)N1CCN(CCn2c(=O)ccc3cnc(Nc4ccc(N5CCN(C(=O)CCSC)CC5)cc4)nc32)CC1 [Example 4, 8-(2-(4-acryloylpiperazin-1-yl)ethyl)-2-((4-(4-(3-(methylthio)propanoyl)piperazin-1-yl)phenyl)amino)pyrido[2,3-d]pyrimidin-7(8H)-one] | B (B represents a pC50 value between 6.7 (included) and 7.5 (IC50 between 200 nM and 32 nM)) | A (A represents a value below 5×10^−6 cm/sec)
C=CC(=O)N1CC(CCn2c(=O)ccc3cnc(Nc4cccc(CN5CCN(C(=O)N(C)C)CC5)c4)nc32)C1 [Example 5, 4-(3-((8-(2-(1-acryloylazetidin-3-yl)ethyl)-7-oxo-7,8-dihydropyrido[2,3-d]pyrimidin-2-yl)amino)benzyl)-N,N-dimethylpiperazine-1-carboxamide] | B (B represents a pC50 value between 6.7 (included) and 7.5 (IC50 between 200 nM and 32 nM)) | A (A represents a value below 5×10^−6 cm/sec)
C=CC(=O)N1CC(CCn2c(=O)ccc3cnc(Nc4cccc(N5CCN(C(=O)CCSC)CC5)c4)nc32)C1 [Example 7, 8-(2-(1-acryloylazetidin-3-yl)ethyl)-2-((3-(4-(3-(methylthio)propanoyl)piperazin-1-yl)phenyl)amino)pyrido[2,3-d]pyrimidin-7(8H)-one] | B (B represents a pC50 value between 6.7 (included) and 7.5 (IC50 between 200 nM and 32 nM)) | B (B represents a value between 5×10^−6 and 10×10^−6 cm/sec)
C=CC(=O)N1CCN(CCn2c(=O)ccc3cnc(Nc4cnn(C)c4)nc32)[C@@H](CC)C1 [Example 12, (S)-8-(2-(4-acryloyl-2-ethylpiperazin-1-yl)ethyl)-2-((1-methyl-1H-pyrazol-4-yl)amino)pyrido[2,3-d]pyrimidin-7(8H)-one] | B (B represents a pC50 value between 6.7 (included) and 7.5 (IC50 between 200 nM and 32 nM)) | B (B represents a value between 5×10^−6 and 10×10^−6 cm/sec)
C=CC(=O)N1CC(CCn2c(=O)ccc3cnc(Nc4ccc(N5CCN(C(=O)CSC)CC5)cc4)nc32)C1 [Example 13, 8-(2-(1-acryloylazetidin-3-yl)ethyl)-2-((4-(4-(2-(methylthio)acetyl)piperazin-1-yl)phenyl)amino)pyrido[2,3-d]pyrimidin-7(8H)-one] | B (B represents a pC50 value between 6.7 (included) and 7.5 (IC50 between 200 nM and 32 nM)) | A (A represents a value below 5×10^−6 cm/sec)
